Experimental data from US20210276960A1, “INHIBITORS OF TISSUE TRANSGLUTAMINASE 2 (TG2) AND USES THEREOF” (Northwestern University, priority 2020, published 2021).

Experiments:
SKOV3 cells = details: cited from earlier work
[1] = Pharmacokinetic assessment; format: in vivo, mice; details: for AUC0-∞ / Cl/F / cmax / t1/2 / tmax: 17.46 mg/Kg
Text: Experiment 2: Pharmacokinetic (PK) assessment. PK studies using the highest safe dose will be conducted on lead compounds that were functionally validated and for which a single dose NOAEL could be established (Aim 3A). These will be carried out by the Sanford Burnham Pharmacology Core (see attached LOS). While ip dosing may not be the preferred route of administration for an eventual cancer drug, these studies using ip dosing will give us data on many PK parameters, including bioavailability, which will be useful in prioritizing and triaging optimized compounds for testing using other routes, e.g., oral. PK parameters will be determined including Cmax (maximum plasma concentration), Tmax (time point of maximum concentration), VdSS (volume of distribution at steady-state), ClE (elimination clearance), AUC (area under the curve) t, (elimination half-life), and oral bioavailability (% F) will be obtained (with the inclusion of an i.v. dosed cohort). […] Our goal will be to identify a compound that has a plasma AUC >5× its cell viability EC50, a t1-2>2 hrs, and low-to-moderate clearance. […] Toxicology and pathology measures will be performed only after anti-tumor activity of lead SMIs will be determined, if compounds are found worthy of detailed study (Expt #3). This approach will maximize use of animals and resources. In brief, peripheral blood counts will be obtained; selected organs and tissues (lung, heart, liver, kidney, colon, bone marrow) will be harvested. Bone marrow cellularity and colony formation assay will be determined.

SKOV3-GFP cells = experiment: In vivo cell attachment to the peritoneum; parameters: species or system mice; details: for unattached OC cells recovered from the peritoneal cavity: NSG mice, ip, 10 μg/kg, 2 hours after injection
OVCAR5 cells [2] = experiment: Wound-healing assay, OVCAR5; format: cell-based, human; details: 8 μM, 24 hours
Protocol: Wound Healing was Performed in 12-Well Plates Coated with 1 μg/Ml FN (Sigma, #1141) overnight at 4° C. OC cells were plated at a density of 2×10^5 cells/well in media containing 2% FBS. Under these conditions cells adhered on substrate, but cell proliferation was minimized. After 16 hours, the cell monolayer was scraped in straight line. Cell debris was removed and serum free media containing selected SMIs or control was replenished. For consistency during image acquisition, a reference point was marked close to the scratch mark and the plate was imaged under phase-contrast microscope at 0, 2, 6, 12 and 24 hours. Wound closure was assessed as the distance between the wound edges, calculated and quantified using the Image Pro-Express software. The percentage of wound closure was evaluated using the formula […]. The rate of migration (μm/h) of OC cells into the wound space was evaluated as the distance difference between wound edges at 0 and 24 h, divided by 24. The experiments were performed in duplicates.

OVCAR5 cells [3] = experiment: Sphere forming assay after priming, with paclitaxel; format: cell-based, human; details: priming with 1 μM, with 5 nM PTX
Protocol: After 72 h priming with either 1 μM MT-4, TG53 or vehicle (DMSO), 150 OVCAR5 cells were seeded in 60 mm dishes and treated or not with paclitaxel (PTX, Sigma). Colonies were allowed to form over 10 days, fixed in 4% PFA and stained with 0.4% crystal violet (MP Biomedicals). Colonies were counted, and analysis was performed using the ImageJ software ([…]).Spheroid cultures were carried out as previously described(Condello et al., 2015). Briefly, OC cells were resuspended in Mammocult complete medium (StemCell Technologies) supplemented with Mammocult Proliferation Supplements, heparin and hydrocortisone (StemCell Technologies) and seeded at a concentration of 10,000 cells/well in 96-well ultra-low attachment plates (Corning, Corning, N.Y., USA). After treatment with DMSO (control) or TG53 (1 μM) for 7 days, spheroids were counted and quantified by the CCK-8 assay. All assays were performed in four replicates and were repeated. For priming before PTX treatment, cells were manipulated as described for CFU assay and then seeded in 6-well low-attachment plate (Corning, #3473) at 7000 cells/mL/well and allowed to form spheroids in complete Mammocult media. Spheres were counted after ten days from 4 replicate wells. Two independent experiments were performed.

[4] = tested on: OVCAR5 cells adhesion to FN; experiment: Solid phase adhesion assay to FN, OVCAR5; format: cell-based, human; parameters: inhibition of adhesion to FN relative to TG53: dose or concentration left out as unconfirmed
Protocol: Cells labeled with calcein AM (Life Technologies, #L3224) were seeded at a density of 4×10^4 cells in 96-well plates pre-coated with FN (5 μg/mL, Sigma, #F1141), and blocked using 1% BSA (Sigma, #A9647) in PBS in the presence of selected compounds diluted at the specified concentrations, in serum free media. After 45 minutes, unattached cells were washed using PBS containing 1 mM MgCl2(Sigma, #M8266) and adherent cells were quantified in a SpectraMaxGeminiXS fluorescence plate reader (Molecular Devices, Palo Alto, Calif.) at 530 nm wavelength. Experiments were performed inquadruplicate and repeated at least twice.

Protocol for Tolerability in vivo: Three doses were administered 25, 50 and 100 mg/kg to cohorts of 3 mice. A) Average weights, B) average white blood cell counts (WBC), C) average hemoglobin (Hgb) and D) average platelet (Plt) counts measured 1 week after administration at the 3 doses (n=3).

COc1ccc(Cl)cc1C(=O)Nc1ccc(Nc2nc(C)cc(N(C)C)n2)cc1 [TG53]
hematological toxicity (Tolerability in vivo; WBC, Hgb, Plt 1 week after administration): did not induce | tolerated dose (Tolerability in vivo; doses 25, 50 and 100 mg/kg): up to 50 mg/kg | cytotoxicity (SKOV3 cells): not cytotoxic | AUC0-∞ ([1]; IV): 2913 ng·h/mL | Cl/F ([1]; IV): 0.12 L/h | cmax ([1]; IV): 4045 ng/mL | t1/2 ([1]; IV): 3.4 h | tmax ([1]; IV): 0 min | AUC0-∞ ([1]; i.p.): 1212 ng·h/mL | Cl/F ([1]; i.p.): 0.29 L/h | cmax ([1]; i.p.): 1313 ng/mL | t1/2 ([1]; i.p.): 19.5 h | tmax ([1]; i.p.): 30 min | t/2 ([1]; ip administration): 19.5 h | t/2 ([1]; iv administration): 3.4 h

Cc1cc(N(C)C)nc(Nc2ccc(NC(=O)Cc3ccccc3)cc2)n1 [MT-4]
unattached OC cells recovered from the peritoneal cavity (SKOV3-GFP cells): attached less efficiently | unattached OC cells recovered from the peritoneal cavity (SKOV3-GFP cells; listed as MT4): Increased numbers | adhesion of cancer cells to the peritoneum (SKOV3-GFP cells; nude mice, i.p., 2 hours): prevented the adhesion | motility (scratch repair) (OVCAR5 cells [2]): inhibited | cell proliferation as spheres (OVCAR5 cells [3]): more potently than PTX alone or PTX and TG53 | inhibition of adhesion to FN relative to TG53 [4]: more active than TG53 | cell adhesion to FN, dose dependence ([4]; 2 μM-25 μM): dose-dependent inhibitory effect
